In PMC8765310, “Metabolism, Excretion, and Mass Balance of [^14C]-Rezafungin in Animals and Humans” (Antimicrobial Agents and Chemotherapy, 2022):
*1 amine or outer side, *2 acyl side, *3 side chain or, on linkers, in order; H or OH if unused. Where a SMILES comes first, the peptide text is derived from it. Bridges are numbered along the chain shown (N, C = ends). [ ]: non-standard residue; d: D form. The star is where a group is joined. Orn(4R-OH,5R-OCH2CH2NMe3+) = C[N+](C)(C)CCO[C@@H](N[*:3])[C@H](O)C[C@H](N[*:1])C(=O)[*:2]; pTerphenylCO(4''-OnC5H11) = CCCCCOc1ccc(-c2ccc(-c3ccc(C(=O)*)cc3)cc2)cc1; hTyr(3S-OH,4S-OH) = N[C@H](C(=O)O)[C@H](O)[C@@H](O)c1ccc(O)cc1; Pro(3S-OH,4S-Me) = C[C@H]1CN[C@H](C(=O)O)[C@H]1O; Hyp = O=C(O)[C@@H]1C[C@@H](O)CN1

Legend:
[1] = Monkey metabolite profiling (LC-MS with radioactivity detection); format: in vivo, cynomolgus monkeys; conditions: pooled samples, IV 10 mg/kg
Description: (§1) (ii) Monkey study design. The study used 3 male cynomolgus monkeys, each administered a single 10 mg/kg IV dose of [^14C]-rezafungin (with a target radioactivity of 100 μCi/kg of [^14C]-rezafungin) by infusion into a saphenous vein over 20 min. Whole blood and plasma samples were collected at each of the following time points: predose, 0.5, 2, 4, 8, 24, 48, 96 120, 144, 168, 240, 480, 720, and 1440 h postdose. Urine, feces, and cage washings were collected at predose (urine/feces only) and daily 24-h collections for 30 days.
(§2) (iv) Metabolite profiling. The metabolite identification and urine profiling were achieved using pooled samples by equal percent weight of samples (urine, bile, feces) or by equal volume (50 μl) aliquots of each plasma sample across all time points/intervals. The urine, plasma, bile, and fecal samples were analyzed using liquid chromatography tandem mass spectrometry (LC-MS) coupled with a radioactivity flow-through detector for metabolite profiling and identification. Tandem MS experiments were performed, and the structures of the metabolites were proposed based on their MS/MS spectra. The proposed structures were confirmed by comparison of the retention times and product ion spectra with the authentic reference standards when possible.

[2] = Rat metabolite profiling (LC-MS with radioactivity detection); format: in vivo, Sprague-Dawley rats; conditions: pooled samples, IV 15 mg/kg
Description: (i) Rat study design. The study used 12 male Sprague-Dawley rats, each administered a bolus IV injection into the tail vein over approximately 3–4 min of 15 mg/kg of rezafungin (with a target radioactivity of 200 μCi/kg of [^14C]-rezafungin). Three of the rats were bile duct cannulated. Whole blood/plasma, urine, feces/bile, and cage washings were collected at periodic intervals from noncannulated rats until euthanization at 336 h postdose and from bile duct cannulated rats until euthanization at 120 h postdose as that was the duration that the patency of bile duct cannulae could be maintained. Carcasses were collected at the time of euthanization. All samples were analyzed for drug-derived radioactivity by liquid scintillation counting.
as §2

[3] = Monkey blood and plasma radioactivity pharmacokinetics; format: in vivo, cynomolgus monkeys
Description: as §1
(iii) Sample analysis. Whole blood and fecal homogenates were combusted prior to analysis by liquid scintillation counting (LSC). Blood, plasma, bile, urine, cage rinse/wash, and fecal homogenate samples were mixed with scintillation fluid and analyzed for radioactivity by LSC. Rat carcasses were dissolved in potassium hydroxide, and the resulting digests were mixed with scintillation fluid and analyzed for radioactivity by LSC.

[4] = Human excretion/mass balance of [14C]-rezafungin; format: in vivo
Description: (i) Study design. This was an open-label, phase I, single-dose mass balance study. The study was conducted at Labcorp (formerly, Covance, Inc.; Madison, WI) in accordance with good clinical practice, including ICH guidelines and applicable regulatory requirements, and in general conformity with the Declaration of Helsinki. No animal work was conducted by Labcorp. All pertinent study documents were reviewed by the Institutional Review Board (IRB) prior to study initiation. Following IRB approval and collection of written informed consent, all the subjects underwent an initial screening assessment within 28 days of the first dose. Safety was assessed by vital signs, physical examinations, AE assessments, laboratory tests (chemistry, hematology, and urinalysis), and a 12-lead electrocardiogram.
Subjects were initially confined in the clinical research unit (CRU) for 17 days postdose and returned for two follow-up visits (days 29 and 60). Recovery of radioactivity was estimated by linear interpolation during the period of time subjects were away from the CRU. Blood samples, urine, and feces were collected at specified times over 60 days.
(ii) Sample analysis. Whole blood, plasma, urine, and fecal homogenate samples were mixed with scintillation fluid and analyzed by liquid scintillation counting. For non-radiolabeled rezafungin concentration determination, a bioanalytical method was validated for measuring rezafungin in human plasma that is similar to one previously reported for animal plasma ([16]). Samples were analyzed using a 100 μl aliquot volume and a protein-precipitation extraction procedure followed by liquid chromatography/tandem mass spectrometry (LC-MS/MS) analysis. Chromatography was carried out on a Waters Atlantis HPLC column (dC18, 2.1 × 50 mm, 5 μm) operating under reverse-phase gradient conditions (0.1% formic acid in water/0.1% formic acid in acetonitrile/tetrahydrofuran ramped from 55%/45%/0% to 5%/0%/95%). Rezafungin calibration range was 10.0 ng/ml to 10,000 ng/ml using isotopically-labeled d9-rezafungin as an internal standard. An AB-Sciex API 4000 mass spectrometer was operated in the multiple reaction monitoring mode (parent-to-product ion transition) under optimized conditions for detection of rezafungin (m/z 604.5 to 343.3 Da) and d9-rezafungin (m/z 609.5 to 343.3 Da) positive ions formed by electrospray ionization. Excellent intra- and inter-assay accuracy and precision, as measured by quality control (QC) samples, was obtained during validation. Across the range of QC samples tested (lower limit of quantitation, LLOQ, through the High QC range), the intra-assay accuracy (% bias from nominal) ranged from −1.4% to 7.0% with the intra-assay precision (% coefficient of variation) ranging from 1.6% to 7.4%. Inter-assay accuracy ranged from 0.3% to 4.3% with the inter-assay precision ranging from 2.7% to 5%.

[5] = Human metabolite profiling (HPLC with radiochemical and HRMS detection); format: in vivo; conditions: 400 mg IV
Description: (iv) Metabolite profiling. Plasma samples were pooled across subjects through 672 h postdose to produce inter-subject time point pools. Urine and fecal homogenate samples were pooled by subject across various time points up through 408 and 672 h postdose, respectively. Selected samples of plasma, urine, and feces were profiled for rezafungin and metabolites by HPLC with radiochemical and high-resolution mass spectrometry detection; metabolites were identified by HPLC with known standards and/or by HPLC-MS/MS structure elucidation. Pharmacokinetics were calculated by non-compartmental analysis using Phoenix WinNonlin software (version 6.3/8.1; Pharsight, Mountain View, CA).

[6] = of the estimated total through day 60

CCCCCOc1ccc(-c2ccc(-c3ccc(C(=O)N[C@H]4C[C@@H](O)[C@@H](OCC[N+](C)(C)C)NC(=O)[C@@H]5[C@@H](O)[C@@H](C)CN5C(=O)[C@H]([C@@H](C)O)NC(=O)[C@H]([C@H](O)[C@@H](O)c5ccc(O)cc5)NC(=O)[C@@H]5C[C@@H](O)CN5C(=O)[C@H]([C@@H](C)O)NC4=O)cc3)cc2)cc1 [rezafungin] ({pTerphenylCO(4''-OnC5H11)}-[Orn(4R-OH,5R-OCH2CH2NMe3+)]T[Hyp][hTyr(3S-OH,4S-OH)]T[Pro(3S-OH,4S-Me)]; lactam 1-C)
Share of total recovered radioactivity in feces ([1]; monkey feces): 35% | Share of total plasma radioactivity exposure ([1]; monkey plasma, LC-MS with radio-detection): 74% | Radioactive component in feces and bile ([2]; rat feces and bile): predominant radioactive component | Share of total plasma radioactivity exposure ([2]; rat plasma, LC-MS with radio-detection): 56% | t1/2 of plasma total radioactivity ([3]; monkey, IV [14C]-rezafungin 10 mg/kg, mean plasma concentrations): 170 h | Ratio of blood-to-plasma AUC (radioactivity) ([3]; monkeys, 10 mg/kg IV): approximately 1 | Time of maximum blood and plasma radioactivity concentrations ([3]; monkeys, single IV 20-min infusion 10 mg/kg, first postdose sample): 0.5 h | Share of the total recovered radioactivity found in feces [4, 6]: Approximately 73% | Share of the total recovered radioactivity found in urine [4, 6]: 27% | Cumulative recovery of radioactivity from excreta ([4]; single 400-mg IV infusion, through the first 17 days (in-clinic), LSC, mean): 52% | Estimated mean overall recovery of the dose ([4]; through day 60, linear interpolation with day 29 and day 60 visits): 88.3% | Cumulative recovery of radioactivity in feces ([4]; through the first 17 days): 38% | Cumulative recovery of radioactivity in urine ([4]; through the first 17 days): 14% | Share of total recovered radioactivity in feces ([5]; human feces pooled by subject through 672 h postdose): 90% | Share of total plasma radioactivity exposure ([5]; human plasma pooled across subjects through 672 h postdose, HPLC radio/HRMS): 69% | Share of total recovered radioactivity in urine ([5]; human urine pooled by subject through 408 h postdose): negligible
